From US6107017A, “Photographic elements containing high-boiling diester solvents” (Eastman Kodak Company, priority 1998, dated 2000)

Key:
Assay type in all cases: physicochemical
[1] = Viscosity measured using a Brookfield cone/plate viscometer
Protocol: (§1) Water solubilities were obtained from plots of light scattering (at 500 nm) of dispersions of the high-boiling solvent in water versus concentration. The light scattering density goes to zero at the solubility limit, when dispersions of high-boiling solvent are diluted. Values of log P calculated using MEDCHEM version 3.54 are also given in Table I and serve as rough indicators of water solubility. Viscosities reported in Table I were measured using a Brookfield cone/plate viscometer. Solvents of high polarity and/or polarizability are often needed to provide suitably bathochromic hues for the types of dyes commonly encountered in color photographic materials. Dye C1, whose structure is provided after Table I, is representative of such dyes. The visible absorption maxima (Lambda max) values for C1, measured with a Perkin Elmer Lambda 2S spectrophotometer, are provided in Table I as measures of solvent polarity/polarizability.

[2] = Visible absorption maximum (Lambda max) of Dye C1 in the high-boiling solvent, as measure of solvent polarity/polarizability; conditions: Perkin Elmer Lambda 2S spectrophotometer
Protocol: as §1, with “Values of log P calculated using MEDCHEM version 3.54 are also given in Table I and serve as rough indicators of water solubility.” left out

[3] = Water solubility from light scattering (at 500 nm) of dispersions of the high-boiling solvent in water
Protocol: as §1, with “Values of log P calculated using MEDCHEM version 3.54 are also given in Table I and serve as rough indicators of water solubility.” left out

[4] = Lambda max of the yellow dye produced from Coupler Y-1 on development; conditions: yellow dye from Y-1, at a blue density of about 1.0
Protocol: For this example, Coupler Y-1 (structure below) was dispersed and coated with comparative high-boiling solvent B1 and with high-boiling solvent A2 of this invention. The dispersions were prepared by adding an oil phase containing a 1:1:3 weight ratio of Y-1:high-boiling solvent: ethyl acetate to an aqueous phase containing gelatin and the dispersing agent ALKANOL XC (mixed isomers of triisopropyl-2-naphthalene sulfonic acid, sodium salt, DuPont) in a 10:1 weight ratio. The mixture was then passed through a colloid mill to disperse the oil in the aqueous phase as small particles. On coating, the ethyl acetate auxiliary solvent evaporates. […]
After hardening, samples of each of the films in Table II were given a sensitometric white light exposure and processed using the KODAK FLEXICOLOR C-41 procedure described in Table III. Measurements of status M blue density versus exposure were made for each processed film strip, and photographic contrast (gamma) was determined from the slopes of such plots. […] The gamma value of 2.45 obtained with solvent A2 of this invention in coating B is similar to the gamma value of 2.63 obtained from comparative solvent B1 in coating A. Spectra of the yellow dye produced from Y-1 on development were measured at a blue density of about 1.0 using a Perkin Elmer Lambda 2S spectrophotometer. […]

SMILES | Viscosity [1] [centipoise] | Lambda max of Dye C1 [2] [nm] | Water Solubility [3] [µg/mL] | Lambda max [4] [nm]
O=C(OCCCCCOC(=O)c1ccccc1)c1ccccc1 [A4] | 70 | 674 | 2.4 | –
Cc1cccc(C(=O)OCCC(C)OC(=O)c2cccc(C)c2)c1 (centres unmarked) [A3] | 295 | 672 | 1.9 | –
CCCC(COC(=O)c1ccccc1)OC(=O)c1ccccc1 (centres unmarked) [A5] | 122 | 673 | 1.5 | –
CCCCC(CC)COC(=O)c1ccccc1 (centres unmarked) [B3, reference compound] | 6 | 661 | – | –
CCCCC(COC(=O)c1ccccc1)OC(=O)c1ccccc1 (centres unmarked) [A2] | 157 | 672 | 1.1 | 449
CCCCOC(=O)c1ccccc1C(=O)OCCCC [B1, dibutyl phthalate, reference compound] | – | – | – | 449
O=C(OCCc1ccccc1)c1ccccc1 [B4, reference compound] | – | – | 10 | –
Cc1ccc(C(=O)OCCC(C)OC(=O)c2ccc(C)cc2)cc1 (centres unmarked) [A1] | 265 | 672 | 1.2 | –
